Our source for the GI50 and TGI values is PubChem BioAssay (NCI).

Test systems include OVCAR-4 ovarian; SF-539 CNS; NCI-H460 lung; UACC-257 melanoma; NCI-H23 lung; SK-MEL-28 melanoma; HT29 colon; SW-620 colon; SK-MEL-2 melanoma; NCI/ADR-RES ovarian.
Common to all, as to experiment: NCI anticancer screen, dose series, 48 h

“And” between values parts separate entries of the source, which are not always exact repeats. Equal entries are not always repeated.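 Method: 48-hour compound exposure of cells in 96-well plates, five concentrations, linear interpolation of endpoints. GI50: concentration for 50% inhibition of growth. TGI marks complete inhibition of growth.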

Turning to `COc1ccc2c(c1)-c1nn(CCCN(C)C)c3ccc([N+](=O)[O-])c(c13)N2`, the GI50 was 0.234 µM and 0.649 µM in the assay on OVCAR-4 ovarian; 0.163 µM and 0.602 µM in the assay on SF-539 CNS; 0.103 µM and 0.27 µM with NCI-H460 lung; 0.455 µM and 1.1 µM in the assay with UACC-257 melanoma; 0.77 µM and 1.75 µM in the assay with SK-MEL-28 melanoma; 0.0633 µM with SW-620 colon. Also, the TGI is 1.18 µM and 2 µM with OVCAR-4 ovarian; 3.17 µM and 7.49 µM with SF-539 CNS; 1.21 µM and 3.06 µM with NCI-H460 lung; 3.26 µM and 10.9 µM in the assay with UACC-257 melanoma; 2.08 µM and 2.3 µM in the assay on NCI-H23 lung; 7.78 µM and 12.6 µM in the assay with SK-MEL-28 melanoma. For the same compound, the TGI was 2.46 µM and 3.05 µM in the assay with HT29 colon; 4.69 µM and 3.65 µM with SW-620 colon; 4.28 µM and 4.55 µM in the assay on SK-MEL-2 melanoma; 2.93 µM and 1.42 µM with NCI/ADR-RES ovarian.
As for `NC1(Cc2ccc(Cl)cc2)CCN(c2ncnc3[nH]ccc23)CC1`, the GI50 was 17.6 µM with OVCAR-4 ovarian; 2.21 µM in the assay with SF-539 CNS; 2.31 µM with NCI-H460 lung; 13.1 µM in the assay with UACC-257 melanoma; 4.55 µM in the assay on NCI-H23 lung; 6.63 µM with SK-MEL-28 melanoma. The GI50 is 3.7 µM in the assay on HT29 colon, 4.59 µM with SW-620 colon, 14.6 µM in the assay with SK-MEL-2 melanoma and 9.97 µM in the assay on NCI/ADR-RES ovarian. Moreover, the TGI with OVCAR-4 ovarian was 60.5 µM; in the assay with SF-539 CNS, 12.6 µM; with NCI-H460 lung, 13.3 µM; in the assay on UACC-257 melanoma it was 26.5 µM; with NCI-H23 lung, 21 µM; with SK-MEL-28 melanoma, 19.8 µM. Also, the TGI with HT29 colon worked out at 17.8 µM; in the assay on SW-620 colon it was 20.4 µM; in the assay with SK-MEL-2 melanoma, 31 µM; in the assay on NCI/ADR-RES ovarian, 26.5 µM.
Consider `CCCCOC1OC(COC(=O)C(C)C)C(OC(=O)C(C)C)C(O)C1OC1OC(C)C(OC(=O)CCC)C(OC(=O)C(C)C)C1O` (stereo unspecified), for which the GI50 in the assay on OVCAR-4 ovarian is 15.1 µM; in the assay with SF-539 CNS, 20.5 µM; in the assay on NCI-H460 lung it was 11.6 µM; in the assay on UACC-257 melanoma, 18.5 µM; in the assay with NCI-H23 lung, 14 µM; with SK-MEL-28 melanoma, 16.2 µM. The GI50 in the assay with HT29 colon was 9.33 µM; in the assay with SW-620 colon, 14.7 µM; with SK-MEL-2 melanoma, 36.2 µM; in the assay with NCI/ADR-RES ovarian it was 3.85 µM. Moreover, the TGI in the assay on OVCAR-4 ovarian stood at 30.4 µM; in the assay on SF-539 CNS, 34.8 µM; in the assay on NCI-H460 lung, 27.8 µM; with UACC-257 melanoma, 32.5 µM; with NCI-H23 lung, 27 µM; with SK-MEL-28 melanoma, 30 µM. Besides, the TGI was 22.5 µM in the assay on HT29 colon, 27.8 µM with SW-620 colon, more than 100 µM in the assay with SK-MEL-2 melanoma and 11.7 µM in the assay on NCI/ADR-RES ovarian.
`COc1cc2oc3c(c(=O)c2c(O)c1/C=C/C(C)C)C(C=C(C)C)Oc1cc(O)ccc1-3` (stereo unspecified): the TGI in the assay with OVCAR-4 ovarian worked out at 31.5 µM; in the assay with SF-539 CNS, 31.8 µM; in the assay on NCI-H460 lung, 30.9 µM; in the assay with UACC-257 melanoma, 32.6 µM; with NCI-H23 lung it was 30.5 µM; in the assay with SK-MEL-28 melanoma, 31.2 µM. The TGI in the assay on HT29 colon turned out to be 28.8 µM; in the assay on SW-620 colon, 32.3 µM; with SK-MEL-2 melanoma, 29.9 µM; in the assay on NCI/ADR-RES ovarian it was 31.1 µM.
Regarding `COc1c(N2CCN(CN3C(=O)C(=O)c4cc(Cl)ccc43)C(C)C2)c(F)cc2c(=O)c(C(=O)O)cn(C3CC3)c12` (stereo unspecified), the GI50 with OVCAR-4 ovarian is 55.5 µM; in the assay on SF-539 CNS, more than 100 µM; with NCI-H460 lung, 30.6 µM; in the assay on UACC-257 melanoma, 27.7 µM; in the assay on NCI-H23 lung, 22 µM; with SK-MEL-28 melanoma, 97.5 µM. Also, the GI50 in the assay on HT29 colon is 30.9 µM; with SW-620 colon, 14.2 µM; with SK-MEL-2 melanoma, more than 100 µM; in the assay on NCI/ADR-RES ovarian it was 76.4 µM. Also, the TGI is more than 100 µM in the assay with OVCAR-4 ovarian; more than 100 µM in the assay with SF-539 CNS; more than 100 µM in the assay on NCI-H460 lung; 72.9 µM in the assay on UACC-257 melanoma; more than 100 µM with NCI-H23 lung; more than 100 µM in the assay with SK-MEL-28 melanoma. Besides, the TGI in the assay with HT29 colon was more than 100 µM; in the assay with SW-620 colon, 75.8 µM; in the assay on SK-MEL-2 melanoma, more than 100 µM; in the assay on NCI/ADR-RES ovarian it was more than 100 µM.
In the case of `COc1ccc(CCN2CCC(CN(C)Cc3cnn(-c4ccccc4)c3)CC2)cc1`, the GI50 in the assay with OVCAR-4 ovarian is 7.75 µM; in the assay with SF-539 CNS, 2.77 µM; in the assay with NCI-H460 lung, 18.7 µM; in the assay on UACC-257 melanoma it was 2.59 µM; with NCI-H23 lung, 29.8 µM; in the assay on SK-MEL-28 melanoma, 2.52 µM. Further, the GI50 with HT29 colon is 4.29 µM; in the assay on SW-620 colon, 16.5 µM; in the assay with SK-MEL-2 melanoma, 17.3 µM; in the assay with NCI/ADR-RES ovarian, 26.7 µM. Moreover, the TGI in the assay with OVCAR-4 ovarian was 57.5 µM; in the assay with SF-539 CNS, 8.08 µM; with NCI-H460 lung, 39.2 µM; in the assay on UACC-257 melanoma it was 7.12 µM; in the assay with NCI-H23 lung, more than 100 µM; in the assay on SK-MEL-28 melanoma it was 7.53 µM. Besides, the TGI with HT29 colon is 17.3 µM; with SW-620 colon, 33.6 µM; with SK-MEL-2 melanoma, 32.8 µM; in the assay on NCI/ADR-RES ovarian, more than 100 µM.
Consider `CC(C)(C)OC(=O)NCc1cccc(N=C=S)c1`, for which the GI50 in the assay on OVCAR-4 ovarian was 16.7 µM; with SF-539 CNS, 21.1 µM; in the assay on NCI-H460 lung, 20.5 µM; in the assay with UACC-257 melanoma, 21.7 µM; with NCI-H23 lung, 18.5 µM; in the assay with SK-MEL-28 melanoma, 16.9 µM. For the same compound, the GI50 is 23.2 µM in the assay on HT29 colon, 18.9 µM in the assay on SW-620 colon, 21.3 µM with SK-MEL-2 melanoma and 26.2 µM in the assay on NCI/ADR-RES ovarian. In addition, the TGI in the assay with OVCAR-4 ovarian stood at 51.8 µM; in the assay on SF-539 CNS, 59.7 µM; in the assay with NCI-H460 lung, 46.1 µM; in the assay with UACC-257 melanoma, 54.4 µM; with NCI-H23 lung, 47.6 µM; with SK-MEL-28 melanoma, 37.7 µM. The TGI in the assay on HT29 colon was determined as 54 µM; in the assay on SW-620 colon, 47.7 µM; in the assay on SK-MEL-2 melanoma, 45.7 µM; with NCI/ADR-RES ovarian it was 79.4 µM.
Consider `CN1CCN(c2nc(-c3csc(-c4cccs4)n3)cc3ccccc23)CC1`, for which the GI50 with OVCAR-4 ovarian was 2.18 µM; with SF-539 CNS it was 1.64 µM; with NCI-H460 lung it was 1.78 µM; in the assay on UACC-257 melanoma, 1.87 µM; in the assay on NCI-H23 lung, 1.93 µM; in the assay with SK-MEL-28 melanoma, 1.77 µM. Further, the GI50 with HT29 colon is 1.66 µM; with SW-620 colon it was 1.75 µM; with SK-MEL-2 melanoma, 1.47 µM; in the assay on NCI/ADR-RES ovarian it was 1.93 µM. Further, the TGI in the assay on OVCAR-4 ovarian stood at 4.73 µM; in the assay on SF-539 CNS it was 3.04 µM; in the assay with NCI-H460 lung it was 3.25 µM; with UACC-257 melanoma, 3.68 µM; in the assay on NCI-H23 lung, 3.92 µM; in the assay with SK-MEL-28 melanoma, 3.24 µM. Moreover, the TGI was found to be 3.41 µM with HT29 colon, 3.25 µM in the assay on SW-620 colon, 3.48 µM with SK-MEL-2 melanoma and 3.92 µM in the assay with NCI/ADR-RES ovarian.
